Measurements taken from ChEMBL document CHEMBL1133265 (Bioorg Med Chem Lett, 2000).

Assays:
[1] = biological target: Norepinephrine transporter (Rattus norvegicus, UniProt Q9WTR4); test: Compound has been evaluated for its affinity towards Norepinephrine transporter by displacing the radio isotope [3H]nisoxetine from rat forebrain
[2] = biological target: Sodium-dependent dopamine transporter (Rattus norvegicus, UniProt P23977); test: Displacement of [3H]GBR-12935 from rat forebrain Dopamine transporter
Sodium-dependent dopamine transporter, sequence (P23977 whole entry): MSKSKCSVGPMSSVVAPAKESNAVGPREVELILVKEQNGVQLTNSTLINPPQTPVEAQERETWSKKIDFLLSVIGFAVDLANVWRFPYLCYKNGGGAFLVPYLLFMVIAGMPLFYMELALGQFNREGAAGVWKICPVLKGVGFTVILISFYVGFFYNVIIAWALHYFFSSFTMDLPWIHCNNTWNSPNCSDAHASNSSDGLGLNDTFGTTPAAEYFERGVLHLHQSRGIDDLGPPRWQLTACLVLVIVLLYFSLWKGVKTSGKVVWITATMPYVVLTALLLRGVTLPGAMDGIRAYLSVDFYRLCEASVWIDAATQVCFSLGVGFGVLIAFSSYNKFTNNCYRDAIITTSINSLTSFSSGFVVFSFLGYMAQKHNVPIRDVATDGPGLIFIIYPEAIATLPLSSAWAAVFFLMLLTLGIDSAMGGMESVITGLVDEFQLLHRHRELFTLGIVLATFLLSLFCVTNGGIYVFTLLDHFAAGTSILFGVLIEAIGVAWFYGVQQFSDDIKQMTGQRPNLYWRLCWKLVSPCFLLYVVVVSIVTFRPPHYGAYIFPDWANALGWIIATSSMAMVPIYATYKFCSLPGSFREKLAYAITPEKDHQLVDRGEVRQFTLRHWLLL

[3] = biological target: Sodium-dependent serotonin transporter (Rattus norvegicus, UniProt P31652); test: Affinity for Serotonin transporter by displacing [3H]paroxetine from rat forebrain
Sodium-dependent serotonin transporter, sequence (P31652 whole entry): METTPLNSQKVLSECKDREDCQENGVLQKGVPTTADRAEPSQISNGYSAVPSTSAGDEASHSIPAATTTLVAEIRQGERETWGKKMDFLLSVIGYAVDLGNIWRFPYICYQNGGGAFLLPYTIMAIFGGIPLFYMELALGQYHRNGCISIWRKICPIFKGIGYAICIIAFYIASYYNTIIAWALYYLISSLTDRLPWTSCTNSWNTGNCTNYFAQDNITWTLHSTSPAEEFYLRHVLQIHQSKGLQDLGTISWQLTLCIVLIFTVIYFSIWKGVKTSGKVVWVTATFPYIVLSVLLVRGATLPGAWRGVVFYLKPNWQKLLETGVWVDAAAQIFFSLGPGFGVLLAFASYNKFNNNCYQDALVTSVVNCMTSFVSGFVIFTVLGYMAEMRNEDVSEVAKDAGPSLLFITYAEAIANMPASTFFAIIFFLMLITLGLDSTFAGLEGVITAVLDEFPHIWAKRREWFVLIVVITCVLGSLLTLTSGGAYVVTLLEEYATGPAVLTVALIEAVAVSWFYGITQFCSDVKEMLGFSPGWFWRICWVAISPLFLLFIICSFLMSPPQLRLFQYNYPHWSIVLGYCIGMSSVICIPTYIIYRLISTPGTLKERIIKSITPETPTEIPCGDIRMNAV

Norepinephrine transporter, sequence (Q9WTR4 whole entry): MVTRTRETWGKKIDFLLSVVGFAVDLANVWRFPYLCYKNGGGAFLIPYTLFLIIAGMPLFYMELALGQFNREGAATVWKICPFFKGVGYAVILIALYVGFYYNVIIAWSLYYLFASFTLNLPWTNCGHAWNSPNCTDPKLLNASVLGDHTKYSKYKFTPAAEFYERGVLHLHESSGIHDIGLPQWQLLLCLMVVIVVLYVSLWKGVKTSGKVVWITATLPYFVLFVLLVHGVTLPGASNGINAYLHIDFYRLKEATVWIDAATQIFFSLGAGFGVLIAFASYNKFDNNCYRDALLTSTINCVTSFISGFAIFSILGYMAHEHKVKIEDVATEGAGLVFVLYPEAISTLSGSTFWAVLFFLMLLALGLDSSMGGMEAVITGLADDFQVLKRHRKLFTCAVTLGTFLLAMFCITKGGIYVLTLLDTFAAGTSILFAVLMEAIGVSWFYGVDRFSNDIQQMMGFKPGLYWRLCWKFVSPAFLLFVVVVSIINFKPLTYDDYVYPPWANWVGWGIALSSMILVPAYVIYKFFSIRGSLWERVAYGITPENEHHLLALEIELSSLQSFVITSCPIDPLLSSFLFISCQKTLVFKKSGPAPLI

`COC(=O)C1C(c2ccc(-c3ccccc3C(C)=O)cc2)CC2CCC1N2C` (centres undefined) showed a Ki [1] greater than 20000 nM.

`COC(=O)C1C(c2ccc(-c3ccccc3[N+](=O)[O-])cc2)CC2CCC1N2C` (centres undefined) was tested, and the Ki [2] was greater than 3000 nM, the Ki [1] was greater than 3000 nM and the Ki [3] was greater than 3000 nM.

Compound `COC(=O)C1C(c2ccc(-c3ccc(OC)cc3)cc2)CC2CCC1N2C` (centres undefined) has a Ki [1] of 352 nM.

`COC(=O)[C@@H]1C2CC[C@H](C[C@@H]1c1ccc(I)cc1)N2C` was tested, and the Ki [2] was 0.96 nM, the Ki [1] was 2.8 nM and the Ki [3] was 0.46 nM.

Compound `COC(=O)C1C(c2ccc(-c3cccc(C(C)=O)c3)cc2)CC2CCC1N2C` (centres undefined) has a Ki [1] greater than 50000 nM.

In the case of `COC(=O)C1C(c2ccc(-c3ccccc3OC)cc2)CC2CCC1N2C` (centres undefined), the Ki [1] is reported as 10000 nM.

For `COC(=O)C1C(c2ccc(-c3cccc([N+](=O)[O-])c3)cc2)CC2CCC1N2C` (centres undefined), the Ki [1] was 963 nM.

`COC(=O)C1C(c2ccc(-c3cccc(OC)c3)cc2)CC2CCC1N2C` (centres undefined) was tested, and the Ki [1] was greater than 3000 nM.

With `COC(=O)C1C(c2ccc(-c3ccc(C(C)=O)cc3)cc2)CC2CCC1N2C` (centres undefined) the Ki [1] was 754 nM.

`COC(=O)C1C(c2ccc(-c3ccc([N+](=O)[O-])cc3)cc2)CC2CCC1N2C` (centres undefined) showed a Ki [1] of 370 nM.
